Reference: patent US5422341A, “Motilin-like polypeptides with gastrointestinal motor stimulating activity” (Ohmeda Pharmaceutical Products Division Inc., priority 1993, dated 1995)
Like-named read-outs stand apart in the source and are kept apart here. Square brackets hold non-standard residues; d marks the D form. Ends that are not written are not given here. Peptide text beside a SMILES is read from it. * marks the point of attachment. X1 = C[N+](C)(C)[C@@H](Cc1ccccc1)C(=O)*; NMe2Phe = CN(C)[C@@H](Cc1ccccc1)C(=O)*; NMeF = CN[C@@H](Cc1ccccc1)C(=O)O

What was measured:
motilin receptor = target: T1, motilin receptor (Oryctolagus cuniculus, UniProt G1T803); assay: Determination of motilin receptor binding affinity (displacement of [125I-Tyr7, Nle13]motilin(porcine)); design: species or system rabbit
T1 construct: from tissue; host or cells: rabbit antral smooth muscle membranes
Procedure: The motilin receptor binding affinity of the peptides of this invention was determined by using the general procedure of Bormans, Peelers and Vantrappen, Regul. […] Fitting was performed using the iterative least-squares procedure of the SAS-software package (SAS Institute, Inc., Cary, N.C., USA).

[1] = type: in vitro ADME, hog; conditions: pH 7
Procedure: Like most small linear polypeptides, motilin is believed to be metabolized lo by the brush border cells of the kidney. Therefore, kidney homogenate was chosen as the model system for assessing the relative in vivo biostability of the peptides of this invention. All peptides to be studied were incubated in hog kidney (Pel Freeze, Inc., Rogers, Ark.) (2% w/v; final volume=4 ml; buffer=HEPES pH 7.0) at 25° C. Both initial substrate concentration and internal standard (Fmoc-Gly) concentration were 0.5 mg/ml. In order to determine suitable incubation times and sampling intervals, two experiments were conducted with each polypeptide. The first run served as a rough estimate of peptide stability. All sampling was performed in duplicate. Sample volume was 180 μl.
Sample clean-up was performed by addition of 20 μl of 100% TCA (final volume=200 μl; final TCA concentration=10%). The sample was vortexed for from 5 to 10 seconds to ensure equilibration, then centrifuged to spin out the precipitated proteins. Analysis was carried out on a Waters HPLC system with a WISP autoinjector, a 5μ Vydac C-18 analytical column, and a Waters 481 UV detector set at 214 nm. Injection volume was 80 μl. Initial solvent conditions were […] in Milli-Q water with a 35 minute gradient running to 63% acetonitrile/37% (0.1%) TFA at 1 ml/min.
Polypeptide substrate and metabolite peaks were ratioed to the internal standard and the duplicate sample ratios were averaged. The avenge ratio for the peptide substrate was expressed as a percentage and plotted versus time. First-order kinetics was assumed for data treatment. The rate of disappearance of the substrate was calculated using the Enzfitter program (Biosoft). Relative half-lives were determined from the relationship: […]

[2] = target: segments of rabbit duodenum (Oryctolagus cuniculus, UniProt G1T803); assay: Rabbit duodenal smooth muscle strip tissue bath assay; type: cell-based; conditions: negative logarithm of the dose giving 50% of the maximal response to motilin; isotonic contraction of rabbit duodenum segments
Outline: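 Isotonic contraction of rabbit duodenal segments after 1 h equilibration and 10^-4 M acetylcholine challenge; cumulative compound curve over 10^-11 to 10^-4 M, then 10^-7 M motilin. Runs discarded if final acetylcholine response differed >5%. EC50 at 50% of maximal motilin response, reported as pEC50.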

[3] = test system: canine gastrointestinal tract; assay: Contractile activity in the canine gastrointestinal tract; type: in vivo, dog; conditions: anesthetized dogs, intra-arterial injection to a duodenal segment; amount giving 50% of the calibration response to field stimulation
Procedure: Mongrel dogs of either sex were anesthetized with sodium pentobarbital 65 mg/kg intravenously. A mid-line incision was made in the abdomen. A duodenal segment was located, the terminal arteries to that segment were identified, and the closest possible artery of the appropriate size was rubbed clean of fat and fascia. A needle of suitable diameter was bent at an angle and the tip inserted in the cleaned artery. The needle was held in position in the artery for approximately 30 seconds until vascular spasm has relaxed and then a catheter assembly was inserted into the artery and tied into position with 000 silk sutures. The fine polyethylene catheter (10-15 cm) was cut to a point at one end with a needle inserted at the other end. The hub of the needle was fitted with a 3-way stopcock and the catheter assembly was filled with heparinized Krebs Ringer bicarbonate containing 10 mM glucose. A bolus of Krebs (free of air) was injected into the arterial catheter and the distribution of blanching in the segment noted. If the area was too large, collateral arteries may be tied off as long as circulation to the area was maintained. A Bass type strain gauge was then sutured to the serosa, and oriented so that circular muscle contractions can be recorded on a Beckman R611 dynograph. Silver wire electrodes were inserted subserosally on either side of the strain gauge and were connected through stimulus isolation units to a Grass S88 electrical stimulator. Electrical field stimulation was applied at 40 V 0.5 ms and 5 pps and the amplitude of the pen recorder was set to contain the contractile response.
All peptides to be injected were dissolved in Krebs and serial dilutions were prepared so that for any concentration the maximum volume to be injected was 1 ml. All solutions except stock Krebs were held on ice for the day of the experiment and discarded at the end of the day. For determination of a dose-response curve, the site was first injected with a bolus of approximately 1 ml of heparinized Krebs to provide a flush control. Peptide agonists (in volumes of 1 ml flushed with 1 ml of Krebs) were injected in logarithmic increments until a response which was maximal in amplitude was obtained. The injection site was then flushed with Krebs containing 0.1% BSA to displace any peptide remaining in the arterial line. For peptides acting at the motilin receptor, care was taken not to inject supramaximal doses as these will induce tachyphylaxis. Therefore, as responses become apparent, 0.3 or 0.5 log unit increments were used. A site was used for a dose-response determination only every 1/2 to 1 hour.
The amplitude of the calibration response to field stimulation in each site was measured and used as 100% for that site. The amplitude of the response to the agonist at each dose was determined, calculated as a % of the calibration response and plotted against the concentration. The ED50 of the response represents the amount of agonist required to produce a response which was 50% of the calibration response.

[4] = in vivo; cited from earlier work
[5] = negative logarithm of the concentration displacing 50% of [125I-Tyr7, Nle13]motilin(porcine) from rabbit antral smooth muscle membranes, read-out: pIC50 (converted)

T1 sequence (G1T803 1-400): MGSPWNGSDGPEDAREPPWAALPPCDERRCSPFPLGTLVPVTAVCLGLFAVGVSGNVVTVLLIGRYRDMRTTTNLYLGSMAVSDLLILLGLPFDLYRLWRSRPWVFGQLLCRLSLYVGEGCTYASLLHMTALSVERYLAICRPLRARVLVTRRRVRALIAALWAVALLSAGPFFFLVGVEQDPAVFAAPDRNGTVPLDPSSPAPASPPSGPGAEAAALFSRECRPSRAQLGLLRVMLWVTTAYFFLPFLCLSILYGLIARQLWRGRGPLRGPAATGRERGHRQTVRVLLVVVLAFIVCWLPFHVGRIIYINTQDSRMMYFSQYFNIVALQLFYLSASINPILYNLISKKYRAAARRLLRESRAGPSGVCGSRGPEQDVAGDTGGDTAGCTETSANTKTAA
Sequence of segments of rabbit duodenum (G1T803 1-400): as above

Compound	IC50 (motilin receptor; [5]) [nM]	T1/2 [1]	pEC50 [2]	ED50 [3] [nmol]	IC50 (motilin receptor; pIC50, negative logarithm of the concentration displacing 50% of [125I-Tyr7, Nle13]motilin(porcine) from rabbit antral smooth muscle membranes) [nM]	Kd (motilin receptor) [nM]	half-life (t1/2) [4] [min]
CC[C@H](C)[C@H](NC(=O)[C@@H]1CCCN1C(=O)[C@@H](NC(=O)[C@H](Cc1ccccc1)NC)C(C)C)C(=O)N[C@@H](Cc1ccccc1)C(=O)N[C@H](C(=O)N[C@@H](Cc1ccc(O)cc1)C(=O)NCC(=O)N[C@@H](CCC(=O)O)C(=O)N[C@@H](CC(C)C)C(=O)N[C@@H](C)C(=O)N[C@H](CCCNC(=N)N)C(=O)N[C@@H](CC(C)C)C(=O)N[C@@H](CCCCN)C(N)=O)[C@@H](C)O (H-[NMeF]VPIFTYGELA[dR]LK-NH2)	0.468	34.3	8.01	0.30			
CC[C@H](C)[C@H](NC(=O)[C@@H]1CCCN1C(=O)[C@@H](NC(=O)[C@H](Cc1ccccc1)NC)C(C)C)C(=O)N[C@@H](Cc1ccccc1)C(=O)N[C@H](C(=O)N[C@@H](Cc1ccc(O)cc1)C(=O)NCC(=O)N[C@@H](CCC(=O)O)C(=O)N[C@@H](CC(C)C)C(=O)N[C@@H](C)C(=O)N[C@H](CCCNC(=N)N)C(=O)N[C@@H](CC(C)C)C(=O)N[C@H](CCC(N)=O)C(N)=O)[C@@H](C)O (H-[NMeF]VPIFTYGELA[dR]L[dQ]-NH2)	0.851	32.6	7.97	0.40			
CC[C@H](C)[C@H](NC(=O)[C@@H]1CCCN1C(=O)[C@@H](NC(=O)[C@H](Cc1ccccc1)NC)C(C)C)C(=O)N[C@@H](Cc1ccccc1)C(=O)N[C@H](C(=O)N[C@@H](Cc1ccc(O)cc1)C(=O)NCC(=O)N[C@@H](CCC(=O)O)C(=O)N[C@@H](CC(C)C)C(=O)N[C@@H](CCC(N)=O)C(=O)N[C@@H](CCCNC(=N)N)C(=O)N[C@@H](CC(C)C)C(=O)N[C@@H](CCCCN)C(N)=O)[C@@H](C)O (H-[NMeF]VPIFTYGELQRLK-NH2)	0.479	20	7.74	0.025			
CC[C@H](C)[C@H](NC(=O)[C@@H]1CCCN1C(=O)[C@@H](NC(=O)[C@H](Cc1ccccc1)N(C)C)C(C)C)C(=O)N[C@@H](Cc1ccccc1)C(=O)N[C@H](C(=O)N[C@@H](Cc1ccc(O)cc1)C(=O)NCC(=O)N[C@@H](CCC(=O)O)C(=O)N[C@@H](CC(C)C)C(=O)N[C@@H](C)C(=O)N[C@H](CCCNC(=N)N)C(=O)N[C@@H](CC(C)C)C(=O)N[C@H](CCCCN)C(N)=O)[C@@H](C)O (NMe2Phe-VPIFTYGELA[dR]L[dK]-NH2)	1.45	47	7.69	0.35			
CC[C@H](C)[C@H](NC(=O)[C@@H]1CCCN1C(=O)[C@@H](NC(=O)[C@H](Cc1ccccc1)[N+](C)(C)C)C(C)C)C(=O)N[C@@H](Cc1ccccc1)C(=O)N[C@H](C(=O)N[C@@H](Cc1ccc(O)cc1)C(=O)NCC(=O)N[C@@H](CCC(=O)O)C(=O)N[C@@H](CC(C)C)C(=O)N[C@@H](C)C(=O)N[C@H](CCCNC(=N)N)C(=O)N[C@@H](CC(C)C)C(=O)N[C@@H](CCCCN)C(N)=O)[C@@H](C)O (X1-VPIFTYGELA[dR]LK-NH2)	1.29	125	7.64	0.12			
CC[C@H](C)[C@H](NC(=O)[C@@H]1CCCN1C(=O)[C@@H](NC(=O)[C@H](Cc1ccccc1)[N+](C)(C)C)C(C)C)C(=O)N[C@@H](Cc1ccccc1)C(=O)N[C@H](C(=O)N[C@@H](Cc1ccc(O)cc1)C(=O)NCC(=O)N[C@@H](CCC(=O)O)C(=O)N[C@@H](CC(C)C)C(=O)N[C@@H](CCC(N)=O)C(=O)N[C@H](CCCNC(=N)N)C(=O)N[C@@H](CC(C)C)C(=O)N[C@@H](CCCCN)C(N)=O)[C@@H](C)O (X1-VPIFTYGELQ[dR]LK-NH2)	1.17	162	7.60	0.15			
CC[C@H](C)[C@H](NC(=O)[C@@H]1CCCN1C(=O)[C@@H](NC(=O)[C@@H](N)Cc1ccccc1)C(C)C)C(=O)N[C@@H](Cc1ccccc1)C(=O)N[C@H](C(=O)N[C@@H](Cc1ccc(O)cc1)C(=O)NCC(=O)N[C@@H](CCC(=O)O)C(=O)N[C@@H](CC(C)C)C(=O)N[C@@H](CCC(N)=O)C(=O)N[C@@H](CCCNC(=N)N)C(=O)N[C@@H](CC(C)C)C(=O)N[C@@H](CCC(N)=O)C(=O)N[C@@H](CCC(=O)O)C(=O)N[C@@H](CCCCN)C(=O)N[C@@H](CCC(=O)O)C(=O)N[C@@H](CCCNC(=N)N)C(=O)N[C@@H](CC(N)=O)C(=O)N[C@@H](CCCCN)C(=O)NCC(=O)N[C@@H](CCC(N)=O)C(=O)O)[C@@H](C)O [[Leu^13]pMOT(1-22), reference compound]		30.2	8.13	0.17	0.661		
CC[C@H](C)[C@H](NC(=O)[C@@H]1CCCN1C(=O)[C@@H](NC(=O)[C@H](Cc1ccccc1)NC)C(C)C)C(=O)N[C@@H](Cc1ccccc1)C(=O)N[C@H](C(=O)N[C@@H](Cc1ccc(O)cc1)C(=O)NCC(=O)N[C@@H](CCC(=O)O)C(=O)N[C@@H](CC(C)C)C(=O)N[C@@H](CCC(N)=O)C(=O)N[C@H](CCCNC(=N)N)C(=O)N[C@@H](CC(C)C)C(=O)N[C@@H](CCC(N)=O)C(=O)O)[C@@H](C)O [[N-MePhe^1, D-Arg^12, Leu^13]pMOT(1-14)] (H-[NMeF]VPIFTYGELQ[dR]LQ-OH)	1.91	30	7.71	0.40			
CC[C@H](C)[C@H](NC(=O)[C@@H]1CCCN1C(=O)[C@@H](NC(=O)[C@@H](N)Cc1ccccc1)C(C)C)C(=O)N[C@@H](Cc1ccccc1)C(=O)N[C@H](C(=O)N[C@@H](Cc1ccc(O)cc1)C(=O)NCC(=O)N[C@@H](CCC(=O)O)C(=O)N[C@@H](CC(C)C)C(=O)N[C@@H](CCC(N)=O)C(=O)N[C@@H](CCCNC(=N)N)C(=O)N[C@@H](CCSC)C(=O)N[C@@H](CCC(N)=O)C(=O)N[C@@H](CCC(=O)O)C(=O)N[C@@H](CCCCN)C(=O)N[C@@H](CCC(=O)O)C(=O)N[C@@H](CCCNC(=N)N)C(=O)N[C@@H](CC(N)=O)C(=O)N[C@@H](CCCCN)C(=O)NCC(=O)N[C@@H](CCC(N)=O)C(=O)O)[C@@H](C)O [motilin]						0.759	4.5
FVPIFTYGELQRLQ [[Leu^13]pMOT(1-14), reference compound]	4.37	7.5	7.55	20.4			
